We go through 34 compounds from patent US9790169B2, “IDO inhibitors” (BRISTOL-MYERS SQUIBB COMPANY, priority 2015, dated 2017).

This test concerns the target human IDO1 (Homo sapiens, UniProt P14902). Kind of test: Assessment of human IDO-1 inhibitory activity in Hela cells (Interferon-gamma stimulated HeLa cells, Ehrlich reagent, absorbance 490 nm). It counts as cell-based. Also on record: endogenous in cells; host or cells: HeLa cells stimulated with interferon-gamma. The settings on record: Hela Human IDO-1 cellular assay. The method in brief: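 HeLa cells pre-incubated with compound 1 h at 37 °C, then stimulated with human IFN-γ (10 ng/ml final) or murine IFN-γ (5 ng/ml final) for 18 h. Kynurenine read with Ehrlich reagent at 490 nm after TCA (3%) and 50 °C treatment; IC50 normalized to unstimulated (100%) and IFN-γ-only (0%) wells.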

Sequence of human IDO1 (P14902 whole entry): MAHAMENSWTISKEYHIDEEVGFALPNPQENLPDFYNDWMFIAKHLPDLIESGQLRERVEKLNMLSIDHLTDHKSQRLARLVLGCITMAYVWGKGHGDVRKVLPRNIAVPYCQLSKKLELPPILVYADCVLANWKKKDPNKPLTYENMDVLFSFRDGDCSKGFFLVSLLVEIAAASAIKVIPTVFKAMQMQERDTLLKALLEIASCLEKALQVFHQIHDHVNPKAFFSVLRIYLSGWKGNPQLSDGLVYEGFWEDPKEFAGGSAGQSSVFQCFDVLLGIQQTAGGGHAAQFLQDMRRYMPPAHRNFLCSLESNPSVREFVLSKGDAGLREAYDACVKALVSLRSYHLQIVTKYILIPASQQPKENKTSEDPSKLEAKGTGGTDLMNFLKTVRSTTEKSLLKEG

In the case of `CCOc1ncc(Nc2cc(C(COC)CC(=O)O)ccc2N2CCC(c3ccccc3)CC2)cn1` (single isomer, unassigned) [Example 1354, 3-(3-((2-ethoxypyrimidin-5-yl)amino)-4-(4-phenylpiperidin-1-yl)phenyl)-4-methoxybutanoic acid], the IC50 was below 5 nM.
Take `COCC(CC(=O)O)c1ccc(N2CCC(c3ccccc3)CC2)c(NC(=O)Nc2ccc(Cl)cc2F)c1` (single isomer, unassigned) [Example 1357 E1, 3-(3-(3-(4-Chloro-2-fluorophenyl)ureido)-4-(4-phenylpiperidin-1-yl)phenyl)-4-methoxybutanoic acid]: the IC50 is above 50 nM.
Regarding `COCC(CC(=O)O)c1ccc(N2CCC(c3ccccc3)CC2)c(NC(=O)Nc2ccc(Cl)cc2F)c1` (single isomer, unassigned) [Example 1357 E2, 3-(3-(3-(4-Chloro-2-fluorophenyl)ureido)-4-(4-phenylpiperidin-1-yl)phenyl)-4-methoxybutanoic acid], the IC50 was below 50 nM.
As for `CC[C@@H](CC(=O)O)c1ccc(N(CC)C2CCOCC2)c(Nc2cnc(C)nc2)c1` (single isomer, unassigned) [Example 1361], the IC50 is below 5 nM.
Turning to `CCc1ncc(Nc2cc([C@@H](CC)CC(=O)O)ccc2N(CC)C2CCOCC2)cn1` (single isomer, unassigned) [Example 1362], the IC50 is below 5 nM.
On to `CC[C@H](CC(=O)O)c1ccc(N(CC)C2CCOCC2)c(Nc2cnc(C)nc2)c1` (single isomer, unassigned) [Example 1363], for which the IC50 is below 5 nM.
For the compound `CCc1ncc(Nc2cc([C@H](CC)CC(=O)O)ccc2N(CC)C2CCOCC2)cn1` (single isomer, unassigned) [Example 1364], the IC50 was below 5 nM.
The figure for `CCOc1ncc(Nc2cc([C@H](CC)CC(C)(C)O)ccc2N(CC)C2CCOCC2)cn1` (single isomer, unassigned) [Example 1368] is above 50 nM.
Compound `CCN(c1ccc([C@@H](COC)CC(=O)O)cc1Nc1ccc(C#N)cc1)C1CCOCC1` (stereo in doubt) [compound 349, 3-(3-((4-Cyanophenyl)amino)-4-(ethyl(tetrahydro-2H-pyran-4-yl)amino)phenyl)-4-methoxybutanoic acid] displayed a half-inhibitory concentration (IC50) below 5 nM.
`CCN(c1ccc(C(C)(C)CC(=O)O)cc1Nc1ccc(C#N)cc1)C1CCC(C)(O)CC1` (stereo not shown) [Example 4, 3-(3-((4-cyanophenyl)amino)-4-(ethyl(4-hydroxy-4-methylcyclohexyl)amino)phenyl)-3-methylbutanoic acid] returned an IC50 below 50 nM.
As to `COCCN(c1ccc(C(C)(C)CC(=O)O)cc1Nc1ccc(Cl)cc1)C1CCOCC1` [Example 15, 3-(3-((4-Chlorophenyl)amino)-4-((2-methoxyethyl)(tetrahydro-2H-pyran-4-yl)amino)phenyl)-3-methylbutanoic acid], the IC50 was below 5 nM.
In turn, `COCCN(c1ccc(C(C)(C)CC(=O)O)cc1Nc1ccc(C#N)cc1)C1CCOCC1` [Example 16, 3-(3-((4-cyanophenyl)amino)-4-((2-methoxyethyl)(tetrahydro-2H-pyran-4-yl)amino)phenyl)-3-methylbutanoic acid] gave an IC50 below 5 nM.
`CCOc1ncc(Nc2cc(C(C)(C)CC(=O)O)ccc2N(CCOC)C2CCOCC2)cn1` [Example 17, 3-(3-((2-ethoxypyrimidin-5-yl)amino)-4-((2-methoxyethyl)(tetrahydro-2H-pyran-4-yl)amino)phenyl)-3-methylbutanoic acid] registered an IC50 above 50 nM.
Compound `COCCN(c1ccc(C(C)(C)CC(=O)O)cc1NC(=O)Nc1ccc(C)cc1)C1CCOCC1` [Example 18, 3-(4-((2-Methoxyethyl)(tetrahydro-2H-pyran-4-yl)amino)-3-(3-(p-tolyl)ureido)phenyl)-3-methylbutanoic acid] came in with an IC50 above 50 nM.
Consider `COCCN(c1ccc(C(C)(C)CC(=O)O)cc1NC(=O)Nc1ccc(C#N)cc1)C1CCOCC1` [Example 19, 3-(3-(3-(4-cyanophenyl)ureido)-4-((2-methoxyethyl)(tetrahydro-2H-pyran-4-yl)amino)phenyl)-3-methylbutanoic acid], for which the IC50 was above 50 nM.
`COCCN(c1ccc(C(C)(C)CC(=O)O)cc1NC(=O)Nc1ccc(Cl)cc1F)C1CCOCC1` [Example 20, 3-(3-(3-(4-chloro-2-fluorophenyl)ureido)-4-((2-methoxyethyl)(tetrahydro-2H-pyran-4-yl)amino)phenyl)-3-methylbutanoic acid] came in with a concentration for half-maximal inhibition (IC50) below 50 nM.
`CCCN(c1ccc(C(C)(C)CC(=O)O)cc1Nc1ccc(Cl)cc1)C1CCOCC1` [Example 21, 3-(3-((4-Chlorophenyl)amino)-4-(propyl(tetrahydro-2H-pyran-4-yl)amino)phenyl)-3-methylbutanoic acid] yielded an IC50 below 5 nM.
As for `CCCN(c1ccc(C(C)(C)CC(=O)O)cc1Nc1ccc(C#N)cc1)C1CCOCC1` [Example 22, 3-(3-((4-cyanophenyl)amino)-4-(propyl(tetrahydro-2H-pyran-4-yl)amino)phenyl)-3-methylbutanoic acid], the IC50 is below 5 nM.
For the compound `CCCN(c1ccc(C(C)(C)CC(=O)O)cc1Nc1cnc(OC)nc1)C1CCOCC1` [Example 23, 3-(3-((2-methoxypyrimidin-5-yl)amino)-4-(propyl(tetrahydro-2H-pyran-4-yl)amino)phenyl)-3-methylbutanoic acid], the IC50 is below 50 nM.
The compound `CCCN(c1ccc(C(C)(C)CC(=O)O)cc1Nc1cnc(OCC)nc1)C1CCOCC1` [Example 24, 3-(3-((2-ethoxypyrimidin-5-yl)amino)-4-(propyl(tetrahydro-2H-pyran-4-yl)amino)phenyl)-3-methylbutanoic acid] came in with an IC50 below 50 nM.
With `CCCN(c1ccc(C(C)(C)CC(=O)O)cc1NC(=O)Nc1ccc(C)cc1)C1CCOCC1` [Example 25, 3-Methyl-3-(4-(propyl(tetrahydro-2H-pyran-4-yl)amino)-3-(3-(p-tolyl)ureido)phenyl)butanoic acid], the half-maximal inhibitory concentration (IC50) was below 50 nM.
As to `CCN(c1ccc(C(CC)(CC)CC(=O)O)cc1Nc1ccc(Cl)cc1)C1CCOCC1` [Example 26, 3-(3-((4-Chlorophenyl)amino)-4-(ethyl(tetrahydro-2H-pyran-4-yl)amino)phenyl)-3-ethylpentanoic acid], the IC50 is below 5 nM.
The figure for `CCN(c1ccc(C(CC)(CC)CC(=O)O)cc1Nc1ccc(C#N)cc1)C1CCOCC1` [Example 27, 3-(3-((4-cyanophenyl)amino)-4-(ethyl(tetrahydro-2H-pyran-4-yl)amino)phenyl)-3-ethylpentanoic acid] is below 5 nM; for `CCN(c1ccc(C(CC)(CC)CC(=O)O)cc1Nc1cnc(OC)nc1)C1CCOCC1` [Example 28, 3-ethyl-3-(4-(ethyl(tetrahydro-2H-pyran-4-yl)amino)-3-((2-methoxypyrimidin-5-yl)amino)phenyl)pentanoic acid] it is below 50 nM; for `CCOc1ncc(Nc2cc(C(CC)(CC)CC(=O)O)ccc2N(CC)C2CCOCC2)cn1` [Example 29, 3-(3-((2-ethoxypyrimidin-5-yl)amino)-4-(ethyl(tetrahydro-2H-pyran-4-yl)amino)phenyl)-3-ethylpentanoic acid] it is below 5 nM.
The figure for `CCN(c1ccc(C(CC)(CC)CC(=O)O)cc1NC(=O)Nc1ccc(C)cc1)C1CCOCC1` [Example 30, 3-Ethyl-3-(4-(ethyl(tetrahydro-2H-pyran-4-yl)amino)-3-(3-(p-tolyl)ureido)phenyl)pentanoic acid] is below 50 nM.
As for `CCN(c1ccc(C(CC)(CC)CC(=O)O)cc1NC(=O)Nc1ccc(C#N)cc1)C1CCOCC1` [Example 31, 3-(3-(3-(4-cyanophenyl)ureido)-4-(ethyl(tetrahydro-2H-pyran-4-yl)amino)phenyl)-3-ethylpentanoic acid], the IC50 is below 50 nM.
`CCN(c1ccc(C(CC)(CC)CC(=O)O)cc1NC(=O)Nc1ccc(Cl)cc1F)C1CCOCC1` [Example 32, 3-(3-(3-(4-chloro-2-fluorophenyl)ureido)-4-(ethyl(tetrahydro-2H-pyran-4-yl)amino)phenyl)-3-ethylpentanoic acid] came in with an IC50 below 5 nM.
The compound `CC(C)CN(CC(C)C)c1ccc(C(C)(C)CC(=O)O)cc1Nc1ccc(Cl)cc1` [Example 145, 3-(3-((4-Chlorophenyl)amino)-4-(diisobutylamino)phenyl)-3-methylbutanoic acid] registered an IC50 below 5 nM.
In turn, `CCOc1ncc(Nc2cc(C3(CC(=O)O)CCOCC3)ccc2N(CC)C2CCOCC2)cn1` [Example 153, 2-(4-(3-((2-Ethoxypyrimidin-5-yl)amino)-4-(ethyl(tetrahydro-2H-pyran-4-yl)amino)phenyl)tetrahydro-2H-pyran-4-yl)acetic acid] returned an IC50 above 50 nM.
Regarding `CCN(c1ccc(C2(CC(=O)O)CCOCC2)cc1Nc1ccc(C#N)cc1)C1CCOCC1` [Example 154, 2-(4-(3-((4-cyanophenyl)amino)-4-(ethyl (tetrahydro-2H-pyran-4-yl)amino)phenyl)tetrahydro-2H-pyran-4-yl)acetic acid], the IC50 is below 50 nM.
Compound `CCN(c1ccc(C2(CC(=O)O)CCOCC2)cc1Nc1ccc(Cl)cc1)C1CCOCC1` [Example 155, 2-(4-(3-((4-chlorophenyl)amino)-4-(ethyl(tetrahydro-2H-pyran-4-yl)amino)phenyl)tetrahydro-2H-pyran-4-yl)acetic acid] returned an IC50 below 5 nM.
Compound `CCN(c1ccc(C2(CC(=O)O)CCOCC2)cc1Nc1ccc(OC)nc1)C1CCOCC1` [Example 156, 2-(4-(4-(ethyl(tetrahydro-2H-pyran-4-yl)amino)-3-((6-methoxypyridin-3-yl)amino)phenyl)tetrahydro-2H-pyran-4-yl)acetic acid] displayed an IC50 above 50 nM.
The compound `CCN(c1ccc(C2(CC(=O)O)CCOCC2)cc1NC(=O)Nc1ccc(C)cc1)C1CCOCC1` [Example 157, 2-(4-(4-(Ethyl(tetrahydro-2H-pyran-4-yl)amino)-3-(3-(p-tolyl)ureido)phenyl)tetrahydro-2H-pyran-4-yl)acetic acid] gave an IC50 above 50 nM.
